Article PMC7600403, “Development of an Oil-in-Water Self-Emulsifying Microemulsion for Cutaneous Delivery of Rose Bengal: Investigation of Anti-Melanoma Properties” (Pharmaceutics, 2020)

Columns and labels:
WM1366 [1] = experiment: MTT cell viability assay of SEMEs and excipients (60 min); type: cell-based, human; settings: WM1366, 60 min incubation; mean (95% CI), n = 5; >Max Conc. = not reaching the sensitive range
Procedure: (§1) Human melanoma cell lines (WM164, WM1366, and D24), spontaneously immortalized normal human keratinocytes (HaCaT), and primary skin fibroblast cells were kindly provided by A/Prof. Helmut Schaider’s laboratory (University of Queensland Diamantina Institute). The cells were grown in RPMI medium (+ L-glutamine) supplemented with 5% (v/v) FBS and 2% penicillin/streptomycin—except for the fibroblast cells which were cultured in DMEM. Cells were routinely grown in culture flasks and maintained at 37 °C in a humidified 5% CO2 atmosphere. The culture media was replaced with fresh media every two to three days. Cells were detached using trypsin–EDTA when they reached approximately 80% confluence to seed or subculture. A low passage number (6–12) of primary fibroblast was used during the experiments, and regular microbial contamination testing was done.
(§2) To exclude any toxic effect of the blank SEMEs and their constituents on human skin cells, an MTT cell viability test was performed based on the original protocol. In this assay, the yellow tetrazolium salt MTT is reduced to insoluble purple formazan crystals by metabolically live cells.
(§3) After 60 min incubation of treated cells, the excipient-containing medium was removed, and 100 μL of MTT in PBS (5 mg/mL) diluted 1:10 in medium was then added. Plates were further incubated in the dark for 2–3 h, after which time the wells were emptied and the purple formazan was dissolved by addition of 200 μL of DMSO to each well. Plates were located in a shaker for 5 min at room temperature and the absorbance of the solutions in the wells was measured at 570 nm using a microplate reader (Multiskan™ FC Microplate Photometer). The impact of each treatment was determined as the percentage of reduced tetrazolium salt against the control cells (untreated cells with medium only).
(§4) The cytotoxicity at each excipient concentration was expressed as a percentage of viability against the untreated control wells (the mean optical density of untreated cells was set at 100% viability) to construct a dose-dependent cytotoxicity plot.
(§5) The percentage viability was calculated as follows (Equation (1)):(1) % Viability= Mean absorbance of treated wells/Mean absorbance of control wellno excipients ×100.
(§6) The cytotoxicity of the excipients and formulations (treatments) was expressed as an IC50 value (concentration causing 50% death of the cell population). The IC50 value for each treatment concentration was calculated from the dose–response curves plotted in GraphPad Prism 7 (GraphPad Software Inc. California, USA) with log (treatment concentration) on the x-axis and percentage survival on the y-axis. The IC50 value was obtained by fitting the dose–response curve with a nonlinear regression curve (Dose-response-inhibition) on GraphPad Prism 7. […] All IC50 values were expressed as v/v (%).

WM164 [2] = experiment: as above; type: cell-based, human; settings: WM164, 60 min incubation; mean (95% CI), n = 5; >Max Conc. = not reaching the sensitive range for the applied concentrations
Procedure: as §1, §2, §3, §4, §5, §6

HaCaT [3] = experiment: as above; type: cell-based, human; settings: 60 min incubation, mean (95% CI), n = 5, >Max Conc. = not reaching the sensitive range
Procedure: as §1, §2, §3, §4, §5, §6

Fibroblast = experiment: Cell cycle analysis by flow cytometry (PI staining, sub G0G1); type: cell-based, human; settings: 50 µM RB, 24-h treatment, untreated 0.00
Procedure: (§7) Apoptotic cells were detected using Propidium Iodide (PI) staining of treated cells followed by flow cytometry to detect the sub-G1 peak. It has been reported that small segments of DNA caused by DNA fragmentation can be eluted following incubation in a hypotonic phosphate-citrate buffer. When stained with a quantitative DNA binding dye such as PI, cells that have lost DNA will take up less stain and will appear to the left of the G1 peak.
(§8) Briefly, melanoma cells were cultured overnight in a 6-well plate to subconfluence and treated with RB (50 µM) for 24 h. Floating and adherent cells were harvested by a trypsin-based method and fixed by ice cold 70% ethanol. Cells were incubated at 4 °C for at least 24 h in the dark and stained using 70 μM Propidium Iodide in 500 µl of a 38-mM hypotonic tri-sodium citrate buffer supplemented with 5 μg/mL RNase A before flow cytometric analysis using a FACScan. […]
(§9) 6. Cell Cycle Analysis by Flow Cytometry
(§10) After determining that RB decreased cell viability of human skin melanoma cells in a dose-dependent manner, the mechanism of cell death was investigated by flow cytometry. As RB-induced cell death was evident upon exposure to concentrations >50 μM, the cells were treated with 50-μM RB in water, SEME+PG and SEME-PG for 24 h for cell cycle analysis. […]
(§11) increases in apoptotic cell populations when cells were treated with RB-loaded SEMEs compared to […]
(§12) selective cell death mechanism could be a key for an effective antimelanoma drug.
(§13) Figure S7. Cell cycle histograms after RB treatment. RB induces apoptosis in melanoma cells. Flow cytometry histograms of apoptosis assays by the PI method. Cells were treated with 50 μM of RB incorporated in different delivery systems for 24 h. The SubG0G1 region (shown by asterisks) indicates the presence of apoptotic cells induced in melanoma cells treated with RB incorporated in SEMEs.
(§14) The percentages of apoptotic cell populations in cancerous and non-cancerous cells are shown in […]
(§15) Table 4 of the manuscript. […]
(§16) with RB loaded in a SEME containing PG.

WM1366 [4] = experiment: as above; type: cell-based, human; settings: WM1366, 50 µM RB, 24-h treatment; untreated 0.89
Procedure: as §7, §8, §9, §10, §11, §12, §13, §14, §15, §16

WM164 [5] = experiment: as above; type: cell-based, human; settings: WM164, 50 µM RB, 24-h treatment; untreated 3.94
Procedure: as §7, §8, §9, §10, §11, §12, §13, §14, §15, §16

D24 [6] = experiment: as above; type: cell-based, human; settings: D24, 50 µM RB, 24-h treatment; untreated 2.54
Procedure: as §7, §8, §9, §10, §11, §12, §13, §14, §15, §16

HaCaT [7] = experiment: as above; type: cell-based, human; settings: 50 µM RB, 24-h treatment, untreated 1.07
Procedure: as §7, §8, §9, §10, §11, §12, §13, §14, §15, §16

[8] = design: method as in PubChem; settings: ref PubChem; cited from earlier work
WM1366 [9] = experiment: MTT assay, inhibitory effect of RB in different delivery systems; type: cell-based, human
Procedure: as §1
(§17) For the 72-h MTT assay, cells were seeded into flat bottom 96-well cell culture plates in 100 μL of complete culture medium at the initial density of […]. Cells were incubated under 5% CO2 at 37 °C for 24 h for adhering to the wells and medium was then replaced with 100 μL of fresh medium containing treatment solution at the required final concentration. Each concentration was tested in 3 replicates in 3 independent studies and control cells were exposed to the culture medium only.
(§18) The MTT cell viability assay was also used as a proxy measure for cell proliferation. Cells were plated in 96-well culture plates, at a density of 8000 cells per well in 100 μL of medium and incubated for 24 h. Treatment solutions of active drug in milli-Q® water or incorporating in SEME were prepared in cell culture medium immediately before use and added in a volume of 100 μL at desired final concentrations. After a specific period, cell viability was evaluated by MTT assay. All experiments were performed in triplicate.
as §6

WM164 [10] = experiment: as above; type: cell-based, human
Procedure: as §1, §17, §18, §6

D24 [11] = experiment: as above; type: cell-based, human
Procedure: as §1, §17, §18, §6

[12] = test system: primary skin fibroblast cells; experiment: as above; type: cell-based, human
Procedure: as §1, §17, §18, §6

HaCaT [13] = experiment: as above; type: cell-based, human
Procedure: as §1, §17, §18, §6

D24 [14] = experiment: MTT cell viability assay of SEMEs and excipients (60 min); type: cell-based, human; settings: D24, 60 min incubation; mean (95% CI), n = 5; >Max Conc. = not reaching the sensitive range
Procedure: as §1, §2, §3, §4, §5, §6

[15] = test system: primary skin fibroblast cells; experiment: as above; type: cell-based, human; settings: 60 min incubation, mean (95% CI), n = 5, >Max Conc. = not reaching the sensitive range
Procedure: as §1, §2, §3, §4, §5, §6

[16] = test system: WM164, WM1366, D24, HaCaT and fibroblast cells; experiment: MTT cell viability assay of excipients, all tested cell lines together; type: cell-based, human; settings: 60 min MTT; maximum concentration used 10 (v/v %)
Procedure: To exclude any toxic effect of the blank SEMEs and their constituents on human skin cells, an MTT cell viability test was performed based on the original protocol. In this assay, the yellow tetrazolium salt MTT is reduced to insoluble purple formazan crystals by metabolically live cells. After 60 min incubation of treated cells, the excipient-containing medium was removed, and 100 μL of MTT in PBS (5 mg/mL) diluted 1:10 in medium was then added. Plates were further incubated in the dark for 2–3 h, after which time the wells were emptied and the purple formazan was dissolved by addition of 200 μL of DMSO to each well. Plates were located in a shaker for 5 min at room temperature and the absorbance of the solutions in the wells was measured at 570 nm using a microplate reader (Multiskan™ FC Microplate Photometer). The impact of each treatment was determined as the percentage of reduced tetrazolium salt against the control cells (untreated cells with medium only). […] The IC50 value for each treatment concentration was calculated from the dose–response curves plotted in GraphPad Prism 7 (GraphPad Software Inc. California, USA) with log (treatment concentration) on the x-axis and percentage survival on the y-axis. […] All IC50 values were expressed as v/v (%).

## CC(O)CO (centres unmarked) [PG, propylene glycol]
WM1366 [1]
  IC50: >Max Conc.
WM164 [2]
  IC50: >Max Conc.
HaCaT [3]
  IC50: >Max Conc.

## O=C([O-])c1c(Cl)c(Cl)c(Cl)c(Cl)c1-c1c2cc(I)c(=O)c(I)c-2oc2c(I)c([O-])c(I)cc12.[Na+].[Na+] [RB, 4,5,6,7-tetrachloro-2, 4′, 5′, 7--tetraiodofluorescein disodium salt]
Fibroblast
  Apoptotic Cells % (Sub G0G1): 0.99%
WM1366 [4]
  Apoptotic Cells % (Sub G0G1): 2.29%
WM164 [5]
  Apoptotic Cells % (Sub G0G1): 6.69%
D24 [6]
  Apoptotic Cells % (Sub G0G1): 2.66%
HaCaT [7]
  Apoptotic Cells % (Sub G0G1): 1.15%
[8]
  log P: 7.6
WM1366 [9]; RB and encapsulated RB, WM1366, 48 h incubation, concentration of RB, mean (95% CI), n = minimum of 4, read-out: IC50
  IC50: 98.9 µM
WM1366 [9]; RB aqueous solution, WM1366, 24 h
  IC50: >Max Conc.
WM1366 [9]; RB aqueous solution, WM1366, 48 h (Table 2), read-out: IC50
  IC50: 110 µM
WM1366 [9]; RB aqueous solution, WM1366, 72 h, read-out: IC50
  IC50: ~114 µM
WM164 [10]; RB and encapsulated RB, WM164, 48 h incubation, concentration of RB, mean (95% CI), n = minimum of 4, vehicle concentration constant
  IC50: 103 µM
WM164 [10]; RB aqueous solution, WM164, 24 h
  IC50: 112 µM
WM164 [10]; RB aqueous solution, WM164, 48 h (Table 2)
  IC50: 107 µM
WM164 [10]; RB aqueous solution, WM164, 72 h
  IC50: 109 µM
D24 [11]; RB and encapsulated RB, D24, 48 h incubation, concentration of RB, mean (95% CI), n = minimum of 4
  IC50: 45.6 µM
D24 [11]; RB aqueous solution, D24, 24 h
  IC50: 131 µM
D24 [11]; RB aqueous solution, D24, 48 h (Table 2)
  IC50: 70 µM
D24 [11]; RB aqueous solution, D24, 72 h
  IC50: 27.3 µM
[12]; RB and encapsulated RB, 48 h incubation, concentration of RB, mean (95% CI), n = minimum of 4
  IC50: 188 µM
[12]; RB aqueous solution, 24 h
  IC50: 238 µM
[12]; RB aqueous solution, 48 h (Table 2)
  IC50: 459 µM
[12]; RB aqueous solution, 72 h
  IC50: 108 µM
HaCaT [13]; RB and encapsulated RB, 48 h incubation, concentration of RB, mean (95% CI), n = minimum of 4, read-out: IC50
  IC50: 153 µM
HaCaT [13]; RB aqueous solution, 24 h, read-out: IC50
  IC50: 2250 µM
HaCaT [13]; RB aqueous solution, 48 h (Table 2), read-out: IC50
  IC50: 221 µM
HaCaT [13]; RB aqueous solution, 72 h
  IC50: >Max Conc.

## CCOCCOCCO [Transcutol®, diethylene glycol monoethyl ether]
WM1366 [1]
  IC50: >Max Conc.
WM164 [2]
  IC50: ~5.6 (very wide) v/v %
D24 [14]
  IC50: 4.55 (3.1-8.2) v/v %
[15]
  IC50: >Max Conc.
HaCaT [3]
  IC50: 5.75 (very wide) v/v %
[16]
  IC50, range over all the cell lines: ≥ 4.55 v/v (%)
